“Also recorded” adds a separate entry of the source. Square brackets hold non-standard residues; d marks the D form. Ends that are not written are not given here. Peptide text beside a SMILES is read from it.
Columns and labels:
[1] = tested on: mice without acute pancreatitis; assay: Control groups: mice given galanin or galanin antagonist alone (saline, no caerulein); conditions: mice without AP
GALR2 = target: T1, GALR2 (Homo sapiens, UniProt O43603); conditions: GALR2 vs GALR1; cited from earlier work
T1 sequence (O43603 1-387): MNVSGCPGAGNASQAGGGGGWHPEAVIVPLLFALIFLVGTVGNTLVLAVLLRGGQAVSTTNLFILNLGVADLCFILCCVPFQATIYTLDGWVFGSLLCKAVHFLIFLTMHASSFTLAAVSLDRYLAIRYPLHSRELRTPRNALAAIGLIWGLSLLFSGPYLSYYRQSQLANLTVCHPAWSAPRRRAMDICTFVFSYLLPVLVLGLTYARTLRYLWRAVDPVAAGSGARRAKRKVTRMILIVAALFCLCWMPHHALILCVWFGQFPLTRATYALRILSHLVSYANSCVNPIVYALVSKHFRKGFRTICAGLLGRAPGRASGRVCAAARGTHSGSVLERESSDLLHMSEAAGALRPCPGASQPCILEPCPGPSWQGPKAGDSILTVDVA

[2] = tested on: caerulein-induced acute pancreatitis (AP) in mice; assay: Caerulein-induced acute pancreatitis in mice (mild model, 7 hourly i.p. injections) with galanin or galanin antagonists; assay type: in vivo, mouse (female Balb C or Swiss); conditions: mouse caerulein AP
[3] = 20 nmol/kg i.p. with each caerulein injection, reduction of AP-induced level
[4] = 40 nmol/kg i.p. with each caerulein injection, vs AP alone
[5] = dose not given (20 and 40 nmol/kg tested)
[6] = dose not given (20 and 40 nmol/kg tested), decrease of AP-induced level
[7] = 40 nmol/kg i.p. with each caerulein injection, reduction of AP-induced level

Compound: CC(C)C[C@H](NC(=O)[C@H](CC(C)C)NC(=O)[C@@H](Cc1c[nH]c2ccccc12)NC(=O)[C@H](Cc1ccccc1)NC(=O)[C@@H](Cc1c[nH]c2ccccc12)NC(=O)[C@H](CCC(N)=O)NC(=O)[C@H](CCC(N)=O)NC(=O)[C@@H]1CCCN1C(=O)[C@H](CCCCN)NC(=O)[C@@H]1CCCN1C(=O)[C@@H](CCCNC(=N)N)NC(=O)[C@@H]1CCCN1C(=O)CNC(=O)[C@H](CC(C)C)NC(=O)[C@H](CC(C)C)NC(=O)[C@H](Cc1ccc(O)cc1)NC(=O)CNC(=O)[C@H](C)NC(=O)[C@H](CO)NC(=O)[C@H](CC(N)=O)NC(=O)[C@H](CC(C)C)NC(=O)[C@@H](NC(=O)[C@H](Cc1c[nH]c2ccccc12)NC(=O)CN)[C@@H](C)O)C(N)=O [C7, Galanin(1-13)-spantide amide] (H-GWTLNSAGYLLGP[dR]PKPQQ[dW]F[dW]LL-NH2)
- pancreatic myeloperoxidase (MPO) activity ([1]; 40 nmol/kg alone): produced an increase in pancreatic MPO activity; also recorded: significantly elevated pancreatic MPO activity

Compound: CC(C)C[C@H](NC(=O)CNC(=O)[C@H](CC(N)=O)NC(=O)[C@H](CCCCN)NC(=O)[C@H](CC(=O)O)NC(=O)[C@H](CO)NC(=O)[C@H](Cc1ccccc1)NC(=O)[C@H](CO)NC(=O)[C@H](CCCNC(=N)N)NC(=O)[C@H](Cc1cnc[nH]1)NC(=O)[C@H](CC(N)=O)NC(=O)CNC(=O)[C@@H](NC(=O)[C@H](C)NC(=O)[C@H](Cc1cnc[nH]1)NC(=O)[C@@H]1CCCN1C(=O)CNC(=O)[C@H](CC(C)C)NC(=O)[C@H](CC(C)C)NC(=O)[C@H](Cc1ccc(O)cc1)NC(=O)CNC(=O)[C@H](C)NC(=O)[C@H](CO)NC(=O)[C@H](CC(N)=O)NC(=O)[C@H](CC(C)C)NC(=O)[C@@H](NC(=O)[C@H](Cc1c[nH]c2ccccc12)NC(=O)CN)[C@@H](C)O)C(C)C)C(=O)N[C@H](C(=O)N[C@@H](CO)C(=O)O)[C@@H](C)O [Galanin]
- plasma amylase activity ([1]; 10 nmol/kg alone, vs baseline): did not increase plasma amylase activity above baseline activity
- plasma lipase activity ([1]; 10 nmol/kg alone, vs baseline): did not increase plasma lipase activity above baseline activity
- pancreatic myeloperoxidase (MPO) activity ([1]; 10 nmol/kg alone, vs saline control): did not significantly increase pancreatic MPO activity above that measured in saline control

Compound: Galanin 2-29: galanin fragment 2-29 (WTLNSAGYLLGPHAVGNHRSFSDKNGLT; ends and bridges not checked; UniProt P22466 34-61, looked up, fragment)
- affinity for GALR2 relative to GALR1 (GALR2): higher affinity than GALR1

Compound: Galanin(1-13)-Pro-Pro-Ala-Leu-Ala-Leu-Ala amide (GWTLNSAGYLLGPPPALALA-NH2) [M40]
- pancreatic acinar cell vacuolization score ([2]; 20 nmol/kg): significantly reduced
- pancreatic myeloperoxidase (MPO) activity [2, 3]: significantly reduced
- pancreatic acinar cell vacuolization score ([2]; 40 nmol/kg): significantly reduced
- pancreatic myeloperoxidase (MPO) activity [2, 4]: significantly reduced
- pancreatitis-induced plasma hyperenzymemia ([2]; co-treatment, 20 and 40 nmol/kg tested): failure to reduce the pancreatitis-induced plasma hyperenzymemia
- pancreatic acinar cell necrosis score [2, 5]: without effect
- pancreatic acinar cell vacuolization score [2, 5]: did
- pancreatic myeloperoxidase (MPO) activity [2, 6]: decreased

Compound: M35: GWTLNSAGYLLGPPPGFSPFR (SEQ ID NO: 15); amino terminal portion of galanin linked to bradykinin
- pancreatic myeloperoxidase (MPO) activity [2, 3]: significantly reduced
- pancreatic acinar cell necrosis score ([2]; 40 nmol/kg (high dose), histology scoring system): reduced the necrosis score; also recorded: significantly reduced
- plasma amylase activity [2, 7]: depressed; also recorded: significantly reduced
- plasma lipase activity [2, 7]: significantly reduced
- pancreatic myeloperoxidase (MPO) activity [2, 4]: significantly reduced
- pancreatic acinar cell vacuolization score [2, 5]: failed to improve the acute pancreatitic-induced vacuolization; also recorded: without effect
- pancreatic myeloperoxidase (MPO) activity [2, 6]: decreased

Reference: US8318657B2, “Methods and compositions for preventing and/or treating pancreatitis” (Flinders Technologies Pty Ltd., priority 2005, dated 2012)
